Broadly, the IC50 is the concentration at which inhibition is half-maximal.

SMILES strings stand for the structures.

T1 sequence (P23443 whole entry): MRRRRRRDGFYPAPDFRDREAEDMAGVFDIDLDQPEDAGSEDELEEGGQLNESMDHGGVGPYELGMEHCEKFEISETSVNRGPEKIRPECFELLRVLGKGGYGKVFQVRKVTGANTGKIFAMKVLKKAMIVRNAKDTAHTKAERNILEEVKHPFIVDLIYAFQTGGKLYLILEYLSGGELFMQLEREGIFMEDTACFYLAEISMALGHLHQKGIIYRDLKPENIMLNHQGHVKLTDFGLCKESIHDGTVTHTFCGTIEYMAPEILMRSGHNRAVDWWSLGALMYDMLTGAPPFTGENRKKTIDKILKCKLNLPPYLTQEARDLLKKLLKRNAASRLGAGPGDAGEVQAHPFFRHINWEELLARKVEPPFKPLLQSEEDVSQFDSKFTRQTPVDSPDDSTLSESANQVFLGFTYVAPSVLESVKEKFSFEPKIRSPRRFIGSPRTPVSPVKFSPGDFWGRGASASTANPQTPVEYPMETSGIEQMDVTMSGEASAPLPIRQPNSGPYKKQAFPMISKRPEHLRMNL

This experiment concerns the target T1, Recombinant human p70S6K kinase (Homo sapiens, UniProt P23443).
T1 construct: purchased ThermoFisher Scientific PV3815
Briefly: S6K Enzymatic Inhibition Assay (HotSpot kinase assay; called S6K binding assay in Table 2). Format: biochemical. The note with it: IC50 class. On the procedure:
Enzymatic activity was determined using a commercial HotSpot kinase assay. Recombinant human p70S6K kinase was purchased from ThermoFisher Scientific (cat #PV3815). The substrate S6K/RSK2 peptide 2 was synthesized at Genscript [Piscataway, NJ]. In brief, the substrate was prepared in the reaction buffer [20 mM Hepes (pH 7.5), 10 mM MgCl2, 1 mM EGTA, 0.02% Brij35, 0.02 mg/mL BSA, 0.1 mM Na3VO4, 2 mM DTT, 1% DMSO]. Testing compounds were dissolved in 100% DMSO and a serial dilution was conducted in DMSO. The kinase at final concentration of 3 nM was added into the substrate solution and gently mixed. Test compounds were delivered at the appropriate concentrations into the kinase reaction mixture by Echo550, and incubated for 20 minutes at room temperature. ^33P-ATP (Specific activity 10 μCi/μL) was added into the reaction mixture to initiate the reaction. Assay plates were incubated for 2 hours at room temperature. The radioactivity was detected by filter-binding method. Kinase activity data is expressed as the percent remaining kinase activity in test samples compared to vehicle (DMSO) reactions. IC50 curves were plotted and IC50 values were calculated using the GraphPad Prism 4 program based on a sigmoidal dose-response equation.
Take `CC(c1cccc(C(F)(F)F)c1)n1cc(-c2ncnc(N)c2-c2ccc(Cl)cc2)cn1` (racemic) [Example 3, (±)-5-(p-Chlorophenyl)-6-(1-{1-[m-(trifluoromethyl)phenyl]ethyl}-1H-pyrazol-4-yl)-4-pyrimidinylamine]: the 50% inhibitory concentration (IC50) fell in the range of 50 to 500 nM. With `Nc1ncnc(-c2cnn(C(CO)c3ccccc3)c2)c1-c1ccc(Cl)cc1` (racemic) [Example 5, (±)-2-{4-[6-Amino-5-(p-chlorophenyl)-4-pyrimidinyl]-1H-pyrazol-1-yl}-2-phenylethanol] the figure was below 50 nM; with `NCC(c1ccccc1)n1cc(-c2ncnc(N)c2-c2ccc(Cl)cc2)cn1` (racemic) [Example 6, (±)-6-[1-(2-Amino-1-phenylethyl)-1H-pyrazol-4-yl]-5-(p-chlorophenyl)-4-pyrimidinamine], below 50 nM; with `NC(=O)C(c1ccccc1)n1cc(-c2ncnc(N)c2-c2ccc(Cl)cc2)cn1` (racemic) [Example 8, (±)-{4-[6-Amino-5-(p-chlorophenyl)-4-pyrimidinyl]-1H-pyrazol-1-yl}phenylacetamide], below 50 nM. With `CN(C)C(=O)C(c1ccccc1)n1cc(-c2ncnc(N)c2-c2ccc(Cl)cc2)cn1` (racemic) [Example 9, (±)-N,N-Dimethyl{4-[6-amino-5-(p-chlorophenyl)-4-pyrimidinyl]-1H-pyrazol-1-yl}phenylacetamide] the figure was 50 to 500 nM; with `Nc1ncnc(-c2cnn(Cc3ccccc3)c2)c1-c1ccc(Cl)cc1` [Example 1, 6-(1-Benzyl-1H-pyrazol-4-yl)-5-(p-chlorophenyl)-4-pyrimidinylamine], below 50 nM; with `Cn1cc(-c2ncnc(N)c2-c2ccc(Cl)cc2)cn1` [Example 2, 5-(p-Chlorophenyl)-6-(1-methyl-1H-pyrazol-4-yl)-4-pyrimidinylamine], 50 to 500 nM. With `Nc1ncnc(-c2cnn(Cc3ccc(C(F)(F)F)cc3)c2)c1-c1ccc(Cl)cc1` [Example 4, 5-(p-Chlorophenyl)-6-(1-{[p-(trifluoromethyl)phenyl]methyl}-1H-pyrazol-4-yl)-4-pyrimidinylamine], the IC50 is below 50 nM.

Regarding `C=C(c1ccccc1)n1cc(-c2ncnc(N)c2-c2ccc(Cl)cc2)cn1` [Example 7, 5-(p-Chlorophenyl)-6-[1-(1-phenylethenyl)-1H-pyrazol-4-yl]-4-pyrimidinylamine], the IC50 is below 50 nM. As to `Nc1ncnc(-c2cnn(-c3ccccc3)c2)c1-c1ccc(Cl)cc1` [Example 10, 5-(p-Chlorophenyl)-6-(1-phenyl-1H-pyrazol-4-yl)-4-pyrimidinylamine], the IC50 was in the range of 50 to 500 nM. In the case of `Cc1ccccc1-n1cc(-c2ncnc(N)c2-c2ccc(Cl)cc2)cn1` [Example 11, 5-(p-Chlorophenyl)-6-[1-(o-tolyl)-1H-pyrazol-4-yl]-4-pyrimidinylamine], the IC50 lay in the range of 50 to 500 nM.

For the compound `Nc1ncnc(-c2cnn(-c3cccc(Cl)c3)c2)c1-c1ccc(Cl)cc1` [Example 12, 5-(p-Chlorophenyl)-6-[1-(m-chlorophenyl)-1H-pyrazol-4-yl]-4-pyrimidinylamine], the 50% inhibitory concentration (IC50) is 500 to 10000 nM.

For `Nc1ncnc(-c2cnn(-c3cccc(C(F)(F)F)c3)c2)c1-c1ccc(Cl)cc1` [Example 13, 5-(p-Chlorophenyl)-6-{1-[m-(trifluoromethyl)phenyl]-1H-pyrazol-4-yl}-4-pyrimidinylamine], the half-maximal inhibitory concentration (IC50) was in the range of 500 to 10000 nM.

Take `Nc1ncnc(-c2cnn(C3CCCCO3)c2)c1-c1ccc(Cl)cc1` (stereo not shown) [Example 14, 5-(p-Chlorophenyl)-6-[1-(tetrahydro-2H-pyran-2-yl)-1H-pyrazol-4-yl]-4-pyrimidinylamine]: the IC50 was in the range of 500 to 10000 nM. With `Nc1ncnc(-c2cnn(Cc3cccc(F)c3)c2)c1-c1ccc(Cl)cc1` [Example 15, 5-(p-Chlorophenyl)-6-{1-[(m-fluorophenyl)methyl]-1H-pyrazol-4-yl}-4-pyrimidinylamine] the figure was below 50 nM; with `Nc1ncnc(-c2cnn(Cc3ccc(Cl)cc3)c2)c1-c1ccc(Cl)cc1` [Example 16, 5-(p-Chlorophenyl)-6-{1-[(p-chlorophenyl)methyl]-1H-pyrazol-4-yl}-4-pyrimidinylamine], below 50 nM; with `Nc1ncnc(-c2cnn(Cc3ccccc3C(F)(F)F)c2)c1-c1ccc(Cl)cc1` [Example 17, 5-(p-Chlorophenyl)-6-(1-{[o-(trifluoromethyl)phenyl]methyl}-1H-pyrazol-4-yl)-4-pyrimidinylamine], 50 to 500 nM. As for `Nc1ncnc(-c2cnn(Cc3ccc(F)cc3)c2)c1-c1ccc(Cl)cc1` [Example 18, 5-(p-Chlorophenyl)-6-{1-[(p-fluorophenyl)methyl]-1H-pyrazol-4-yl}-4-pyrimidinylamine], the IC50 was below 50 nM. With `Nc1ncnc(-c2cnn(Cc3ccc(F)cc3F)c2)c1-c1ccc(Cl)cc1` [Example 19, 5-(p-Chlorophenyl)-6-{1-[(2,4-difluorophenyl)methyl]-1H-pyrazol-4-yl}-4-pyrimidinylamine] the figure was below 50 nM; with `Nc1ncnc(-c2cnn(Cc3ccc(OC(F)(F)F)cc3)c2)c1-c1ccc(Cl)cc1` [Example 20, 5-(p-Chlorophenyl)-6-{1-[(p-trifluoromethoxyphenyl)methyl]-1H-pyrazol-4-yl}-4-pyrimidinylamine], below 50 nM; with `Nc1ncnc(-c2cnn(Cc3ccccc3F)c2)c1-c1ccc(Cl)cc1` [Example 21, 5-(p-Chlorophenyl)-6-{1-[(o-fluorophenyl)methyl]-1H-pyrazol-4-yl}-4-pyrimidinylamine], below 50 nM. With `Nc1ncnc(-n2cc(C(=O)c3ccccc3)cn2)c1-c1ccc(Cl)cc1` [Example 22, {1-[6-Amino-5-(p-chlorophenyl)-4-pyrimidinyl]-1H-pyrazol-4-yl}phenylmethanone] the figure was 500 to 10000 nM; with `Nc1ncnc(-n2cc(Cc3ccccc3)cn2)c1-c1ccc(Cl)cc1` [Example 23, 6-(4-Benzyl-1H-pyrazol-1-yl)-5-(p-chlorophenyl)-4-pyrimidinylamine], 50 to 500 nM. As to `COc1ccc(-c2c(N)ncnc2-c2cnn(Cc3ccc(C(F)(F)F)cc3)c2)cc1` [Example 24, 5-(p-Methoxyphenyl)-6-(1-{[p-(trifluoromethyl)phenyl]methyl}-1H-pyrazol-4-yl)-4-pyrimidinylamine], the IC50 was below 50 nM. In the case of `Nc1ncnc(-c2cnn(Cc3ccc(C(F)(F)F)cc3)c2)c1-c1ccc(F)cc1` [Example 25, 5-(p-Fluorophenyl)-6-(1-{[p-(trifluoromethyl)phenyl]methyl}-1H-pyrazol-4-yl)-4-pyrimidinylamine], the IC50 was below 50 nM. On to `CS(=O)(=O)c1ccc(-c2c(N)ncnc2-c2cnn(Cc3ccc(C(F)(F)F)cc3)c2)cc1` [Example 26, 5-[p-(Methylsulfonyl)phenyl]-6-(1-{[p-(trifluoromethyl)phenyl]methyl}-1H-pyrazol-4-yl)-4-pyrimidinylamine], for which the IC50 fell in the range of 500 to 10000 nM. Turning to `Nc1ncnc(-c2cnn(Cc3ccc(C(F)(F)F)cc3)c2)c1-c1ccc(Cl)c(F)c1` [Example 27, 5-(4-Chloro-3-fluorophenyl)-6-(1-{[p-(trifluoromethyl)phenyl]methyl}-1H-pyrazol-4-yl)-4-pyrimidinylamine], the IC50 is below 50 nM. The same measure for `Nc1ncnc(-c2cnn(Cc3ccc(C(F)(F)F)cc3)c2)c1-c1ccc(Cl)c(Cl)c1` [Example 28, 5-(3,4-Dichlorophenyl)-6-(1-{[p-(trifluoromethyl)phenyl]methyl}-1H-pyrazol-4-yl)-4-pyrimidinylamine]: 500 to 10000 nM. Regarding `COc1cc(-c2c(N)ncnc2-c2cnn(Cc3ccc(C(F)(F)F)cc3)c2)ccc1Cl` [Example 29, 5-(4-Chloro-3-methoxyphenyl)-6-(1-{[p-(trifluoromethyl)phenyl]methyl}-1H-pyrazol-4-yl)-4-pyrimidinylamine], the IC50 fell in the range of 500 to 10000 nM.

Turning to `COc1ccc(-c2c(N)ncnc2-c2cnn(Cc3ccc(C(F)(F)F)cc3)c2)cc1Cl` [Example 30, 5-(3-Chloro-4-methoxyphenyl)-6-(1-{[p-(trifluoromethyl)phenyl]methyl}-1H-pyrazol-4-yl)-4-pyrimidinylamine], the IC50 fell in the range of 500 to 10000 nM. For `Nc1ncnc(-c2cnn(Cc3ccc(C(F)(F)F)cc3)c2)c1-c1ccc(F)c(F)c1` [Example 31, 5-(3,4-Difluorophenyl)-6-(1-{[p-(trifluoromethyl)phenyl]methyl}-1H-pyrazol-4-yl)-4-pyrimidinylamine], the IC50 was below 50 nM. The same measure for `COc1ccc(-c2c(N)ncnc2-c2cnn(Cc3ccc(C(F)(F)F)cc3)c2)cc1F` [Example 32, 5-(3-Fluoro-4-methoxyphenyl)-6-(1-{[p-(trifluoromethyl)phenyl]methyl}-1H-pyrazol-4-yl)-4-pyrimidinylamine]: below 50 nM; for `COc1cc(-c2c(N)ncnc2-c2cnn(Cc3ccc(C(F)(F)F)cc3)c2)ccc1F` [Example 33, 5-(4-Fluoro-3-methoxyphenyl)-6-(1-{[p-(trifluoromethyl)phenyl]methyl}-1H-pyrazol-4-yl)-4-pyrimidinylamine]: 500 to 10000 nM. On to `Nc1ncnc(-c2cnn(Cc3ccc(C(F)(F)F)cc3)c2)c1-c1ccc(OC(F)(F)F)cc1` [Example 34, 5-(p-Trifluoromethoxyphenyl)-6-(1-{[p-(trifluoromethyl)phenyl]methyl}-1H-pyrazol-4-yl)-4-pyrimidinylamine], for which the half-inhibitory concentration (IC50) was in the range of 500 to 10000 nM.

These data come from US12234224B2, “Pyrimidine and pyridine amine compounds and usage thereof in disease treatment” (Epigen Biosciences, Inc., priority 2021, dated 2025).
